Marks after values point to notes of the source that are not given here.
What was measured:
Assay type in all cases: in vivo
Plasmopara viticola [1] = experiment: TEST G: curative spray on inoculated grape seedlings, grape downy mildew, disease rating; details: for curative utility: curative (post-infection) use, especially for grape downy mildew, statement in words; for Test G disease control rating (grape downy mildew, curative): curative spray on inoculated grape seedlings
[2] = system: Erysiphe graminis f. sp. tritici; experiment: TEST A: preventive spray on wheat seedlings, wheat powdery mildew, disease rating; details: 100 = 100% disease control, 0 = no control relative to controls, concentration not marked in table
Phytophthora infestans [3] = details: preventive spray on tomato seedlings; 100 = 100% disease control, 0 = no control; concentration not marked in table
Plasmopara viticola [4] = experiment: TEST E: preventive spray on grape seedlings, grape downy mildew, disease rating; details: 100 = 100% disease control, 0 = no control, concentration not marked in table
Puccinia recondita = experiment: TEST B: preventive spray on wheat seedlings, wheat leaf rust, disease rating; details: 100 = 100% disease control, 0 = no control, concentration not marked in table
Pyricularia oryzae = details: preventive spray on rice seedlings; 100 = 100% disease control, 0 = no control; concentration not marked in table
Phytophthora infestans [5] = details: curative spray; 100 ppm on potato seedlings
[6] = concentration not marked in table

| SMILES | curative utility (Plasmopara viticola [1]) | Test G disease control rating (grape downy mildew, curative) (Plasmopara viticola [1]; [6]) [%] | Test A disease control rating (wheat powdery mildew) [2] [%] | Test D disease control rating (potato and tomato late blight) (Phytophthora infestans [3]) [%] | Test E disease control rating (grape downy mildew) (Plasmopara viticola [4]) [%] | Test B disease control rating (wheat leaf rust) (Puccinia recondita) [%] | Test C disease control rating (rice blast) (Pyricularia oryzae) [%] | Test F disease control rating (late blight, curative) (Phytophthora infestans [5]) | Test G disease control rating (grape downy mildew, curative) (Plasmopara viticola [1]; 100 ppm) |
| --- | --- | --- | --- | --- | --- | --- | --- | --- | --- |
| CC(NC(=O)c1c(Cl)ccnc1Cl)c1ncc(Cl)cc1Cl (racemic) [Compound 36] | significant curative utility | 100 | 0 | 100 | 100 | 38 | 0 | – | – |
| CC(NC(=O)c1c(Cl)ccnc1Cl)c1ncc(Br)cc1Cl (racemic) [Compound 37] | significant curative utility | 100 | 0 | 100 | 100 | 19 | 0 | – | – |
| O=C(NCc1ncc(C(F)(F)F)cc1Cl)c1c(Cl)ccnc1Cl [Compound 28] | significant curative utility | – | – | 100 | 100 | – | 0 | 97# % | 37* % |

Source: US7074742B2, “Pyridinyl amides and imides for use as fungicides” (E. I. du Pont de Nemours and Company, priority 2000, dated 2006)
